Patent US7687603B2, “Guanidinium delivery carriers” (priority 2005, dated 2010)
pIC50: −log10 of the molar value. Numbered stars: 1 amine (or outer) side, 2 acyl side, 3 side chain; on linkers, the order of the positions; unused ones are H or OH. Side chains are listed from the residue outwards. Peptide text beside a SMILES is read from it. * marks the point of attachment. Doxorubicin(3'-N) = COc1cccc2c1C(=O)c1c(O)c3c(c(O)c1C2=O)C[C@@](O)(C(=O)CO)C[C@@H]3O[C@H]1C[C@H](N*)[C@H](O)[C@H](C)O1; Suc = O=C(CCC(=O)[*:2])[*:1]

Key:
B16F0 cells [1] = assay: IC50% study; type: cell-based; settings: 96 hours
B16F0 cells [2] = assay: IC50% study; type: cell-based
Description: B16F0 cells (obtained from American Type Culture Collection, ATCC) were split into 96 well plates and incubated at 37° C. under 5% CO2. After 24 hours, BMPC-Pt was added to each well. The fluorescence of each well was measured using two wavelength filters (450 nm and 528 nm) before and several times after BMPC-Pt was added (24, 48, and 72 hours). Using measurements, the fluorescence intensity net increase ratio was calculated and the results are summarized in Table 3 and shown in FIGS. 19 and 20.

Hela 705 cells = assay: Transduction assay (in vitro), fluorescence microscope; type: cell-based; settings: 30 min at 37° C., Streptavidin-FITC, FIG. 4
Description: The transduction efficiency of compound 9 from Example 1 and compound 11 from Example 2 were analyzed. Hela 705 cells were seeded at 1.5×10^4/well in 96-well plate and cultured overnight (about 70% confluenced). The media was discarded and the cells rinsed with PBS. Biotin-labeled test compounds (dissolved in PBS, pH: 7.4) were applied to culture(s) and incubated for 30 min at 37° C. The media was carefully discarded and the cells rinsed with PBS. The cells were fixed in freshly prepared 4% paraformaldehyde for 10 min at 4° C. The cells were rinsed and incubated with a blocking reagent (10% BSA containing 0.5% Triton X-100 in PBS) for 30 min at 37° C. The cells were again rinsed with PBS and incubated with Streptavidin-FITC for 30 min at room temperature. The cells were then rinsed with PBS and observed under fluorescence microscope.
The transduction activity of the disulfide linked HA compounds 13 and 14 from Example 4 were tested on Hela 705 cells following the procedure as mentioned above. FITC conjugated anti-HA antibody was applied for visualization.

Mouse skin tissue = assay: In vivo transdermal delivery assay; settings: nude mice skin, 100 μl of 1 mM in PBS, 30 min, FIG. 9
Description: Compounds 9 and 11 from Examples 1 and 2 were tested in vivo. In vivo evaluation was conducted with a transdermal delivery assay on nude mice (NU/NU ♀). Nude mice (female, 6 weeks old, from Charles River) were anesthetized with 50 μl cocktail of Ketaset 25 mg/ml, Xylazine 5 mg/ml (i.m.). The skin was wiped with saline and a 100 μl solution of the test compounds (1 mM in PBS) was applied. A plastic ring was used to isolate the test solution and vaseline was rubbed outside of the ring. After 30 min incubation, the animal was sacrificed under deep anesthesia and the skin was removed. Mouse skin tissue was immediately embedded in OTC medium, cut into 5 μm on a cryostat and collected on slides, and stored at −70° C. The tissue was fixed in freshly prepared 4% paraformaldehyde in PBS for 10 min at 4° C. The tissue was then rinsed in PBS 2×5 min and incubated with 10% BSA containing 0.5% Triton X-100 in PBS for 30 min at 37° C. The samples were incubated with Streptavidin-FITC (diluted in 1% BSA containing 0.05% Triton X-100 in PBS) overnight at 4° C. […] The samples were rinsed twice in PBS 2×5 min and tap water and mounted with anti-fading mounting medium and observed under fluorescence microscope or confocal imaging analysis.

[3] = Body weight changes after intra-tumor administration; type: in vivo, nu/nu athymic mice; settings: 21 days after intra-tumor administration
Description: (§1) Male nu/nu athymic mice (6-7 weeks old; 22-25 g; available from Charles River Laboratories) were inoculated subcutaneously on the right flank with 1.1×10^6 Hela and PC-3 cells to obtain xenografs of human PC-3 prostate cancer.
(§2) Approximately 4 days after inoculation, the four groups of five mice were administered a solution containing saline, doxorubicin, PTD, or DOX-PTD (e.g., 0.103×10^−4 mol) via intra-tumor injection or intravenously. The solution was administered once a week until the total volume administered equaled ˜50 μL/mouse. Size measurements of the tumor and the body weight of the mice were taken every other day. A saline solution was used as a control.

mammalian cells = assay: MTT cytotoxicity study; type: cell-based
Description: (§3) Cytotoxicity of PTD carriers were evaluated in mammalian cells using 3-[4,5 dimethylthiazol-2-yl]-2,5-diphenyltetrazolium bromide (MTT). After inducing cytotoxicity (˜4 hrs) by routine methods, 10 μl of MTT solution (5.0 mg/ml in PBS, Sigma) was added to each well, and incubated at 37° C. for 3 hrs. The medium was then removed and 200 μl dimethyl sulfoxide (DMSO) was added into each well to dissolve the formazan crystals produced by living cells. The absorbance of the solution was measured at 570 nm. Cell viabilities were calculated using the equation: Viability (%)={Abs570 (sample)/Abs570 control}. A control reaction was run under the same conditions except for the addition of Dox-PTD.

MTT cytotoxicity study = type: cell-based; settings: mammalian cells, FIG. 13, read-out: cells survived (viability)
Description: as §3

[4] = test system: xenografs of human PC-3 prostate cancer; assay: DOX-PTD anti-tumor treatment in vivo study, tumor size; design: species or system nu/nu athymic mice; settings: intra-tumor administration, Dosedox=0.2 mg/kg, FIGS. 14 and 15
Description: as §1, §2

PC-3 cells = assay: Cytotoxicity assay, live/dead cell staining; type: cell-based
Description: Prostate cancer cell lines (PC-3 cells) were maintained in 12-F medium containing 10% fetal bovine serum, 100 units/mL penicillin and 100 μg/mL streptomycin at 37° C. under 5% CO2 and 100% humid condition. To avoid confluency due to the short doubling time (˜20 hrs), the cells were split every 3-4 days.
The PC-3 cells were plated in 6-well tissue culture plates (5×10^5 cells/well) and incubated overnight in 12-F medium with 10% FBS. For each well, an aliquot of 200 μl Doxorubicin-protein transduction domain (DOX-PTD) solution at same mole concentration (0.2 mg/per well) was added. The cells were then incubated at 37° C. in 5% CO2 for 2 hrs.
After incubation, the live and dead cells were counted using cell staining analysis according to the protocol provided by the manufacturer. The dead cells stain red while the live cells stain green. The green and red fluorescent signals from the cells were observed under a fluorescent microscope (Olympus, filter 570 nm-605). The percentage of live cells in the cultures was determined from counts of three fields.

SMILES	pIC50 (B16F0 cells [1])	pIC50 (B16F0 cells [2]; 24 hours)	pIC50 (B16F0 cells [2]; 48 hours)	pIC50 (B16F0 cells [2]; 72 hours)	body weight difference between groups [3]	also measured
CC(=O)N[C@@H](CCCNC(=N)N)C(=O)N[C@@H](CCCNC(=N)N)C(=O)N[C@@H](CCCCNC(=O)[C@H](CCCNC(=N)N)NC(=O)[C@H](CCCNC(=N)N)NC(=O)CCC(=O)NC1CC(=O)[O][Pt]2([NH]C3CCCCC3[NH]2)[O]C1=O)C(=O)N[C@@H](CCCNC(=N)N)C(=O)N[C@@H](CCCNC(=N)N)C(=O)N[C@@H](CCCNC(=N)N)C(=O)N[C@@H](CCCNC(=N)N)C(N)=O (some centres unmarked) [BMPC-Pt]	4.90	3.89	4.29	4.65	–	–
N=C(N)NCCCC(N)C(=O)NC(CCCNC(=N)N)C(=O)NC(CCCNC(=N)N)C(=O)NCCCCC(NC(=O)C(CCCNC(=N)N)NC(=O)C(CCCNC(=N)N)NC(=O)C(N)CCCNC(=N)N)C(=O)NCCCCC(NC(=O)C(CCCNC(=N)N)NC(=O)C(CCCNC(=N)N)NC(=O)CCCC[C@@H]1SC[C@@H]2NC(=O)N[C@@H]21)C(N)=O (some centres unmarked) [compound 11]	–	–	–	–	–	transduction efficiency compared to vehicle (PBS) (Hela 705 cells): dramatic transduction efficiency; transdermal delivery efficiency compared to vehicle (PBS) (Mouse skin tissue): dramatic transdermal delivery efficiency
N.N.O=C([O-])C1(C(=O)[O-])CCC1.[Pt+2] [Carboplatin, reference compound]	5.35	3.96	4.44	4.61	–	–
COc1cccc2c1C(=O)c1c(O)c3c(c(O)c1C2=O)C[C@@](O)(C(=O)CO)C[C@@H]3O[C@H]1C[C@H](N)[C@H](O)[C@H](C)O1 [DOX, doxorubicin, reference compound]	–	–	–	–	no significant difference	–
COc1cccc2c1C(=O)c1c(O)c3c(c(O)c1C2=O)C[C@@](O)(C(=O)CO)C[C@@H]3O[C@H]1C[C@H](NC(=O)CCC(=O)N[C@@H](CCCNC(=N)N)C(=O)N[C@@H](CCCNC(=N)N)C(=O)NCCCC[C@H](NC(=O)[C@H](CCCNC(=N)N)NC(=O)[C@H](CCCNC(=N)N)NC(C)=O)C(=O)N[C@@H](CCCNC(=N)N)C(=O)N[C@@H](CCCNC(=N)N)C(=O)N[C@@H](CCCNC(=N)N)C(=O)N[C@@H](CCCNC(=N)N)C(N)=O)[C@H](O)[C@H](C)O1 [DOX-PTD] (Ac-RRK([Arg-Arg-Suc-Doxorubicin(3'-N)])RRRR-NH2)	–	–	–	–	no significant difference	cytotoxicity (mammalian cells): extremely high; viability (MTT cytotoxicity study): < 40%; tumor size [4]: increased in size less than the tumor injected with Dox alone; number of live cells (PC-3 cells; 0.2 mg/per well, 2 hrs, FIGS. 11 and 12): less than with Dox alone; penetration into the PC-3 cells (PC-3 cells; inferred from live cell counts): greater penetration into the PC-3 cells compared to Dox alone
